≈ marks a conversion by molar mass, not a printed value. Where “and” joins values, the source holds several entries; their conditions need not be identical. Equal values may be shown once. Some results are limits rather than exact numbers.

Format in all cases: functional
The test system of one experiment is Bacillus subtilis. Description: Antibacterial activity against Bacillus subtilis assessed as inhibition of bacterial growth incubated for 24 hrs by microbroth dilution method. A general note: Broth dilution looks for growth in wells or tubes with falling amounts of substance.
The next experiment relates to Mycolicibacterium phlei. Description: Antibacterial activity against Mycobacterium phlei assessed as inhibition of bacterial growth incubated for 24 hrs by microbroth dilution method.
In a further experiment the test system is Proteus sp. Description: Antibacterial activity against Proteus sp. assessed as inhibition of bacterial growth incubated for 24 hrs by microbroth dilution method.
The next experiment relates to Candida albicans. Description: Antifungal activity against monilia albicans assessed as inhibition of fungal growth incubated for 24 hrs by microbroth dilution method.
The test system of a further experiment is Vibrio parahaemolyticus. Description: Antibacterial activity against Vibrio parahaemolyticus assessed as inhibition of bacterial growth incubated for 24 hrs by microbroth dilution method.
Another experiment deals with Staphylococcus aureus. Description: Antibacterial activity against methicillin-resistant Staphylococcus aureus assessed as inhibition of bacterial growth incubated for 24 hrs by microbroth dilution method.
The subject of a further experiment is Bacillus cereus. Description: Antibacterial activity against Bacillus cereus assessed as inhibition of bacterial growth incubated for 24 hrs by microbroth dilution method.
[1] abbreviates: Bacillus subtilis, read-out: MIC.
The mark [2] stands for this setting: Mycolicibacterium phlei, read-out: MIC.
Setting [3] is: Proteus sp. (in: enterobacteria), read-out: MIC.

On to `O=c1c(-c2ccc(O)c(-c3c(O)cc(O)c4c(=O)c(-c5ccc(O)cc5)coc34)c2)coc2cc(O)cc(O)c12`, for which the minimum inhibitory concentration (MIC) is 0.8 µM (≈ 0.431 µg/mL) with Bacillus subtilis (setting [1]); 0.8 µM (≈ 0.431 µg/mL) with Mycolicibacterium phlei (setting [2]); 0.8 µM (≈ 0.431 µg/mL) in the experiment with Proteus sp. (setting [3]); above 50 µM in the experiment on Candida albicans; 0.8 µM (≈ 0.431 µg/mL) in the experiment with Vibrio parahaemolyticus; 0.8 µM (≈ 0.431 µg/mL) in the experiment with Staphylococcus aureus. Further, the minimum inhibitory concentration (MIC) with Bacillus cereus (Bacillus cereus, read-out: MIC) was found to be 3.1 µM (≈ 1.67 µg/mL).

As to `O=C(O)c1cn(C2CC2)c2cc(N3CCNCC3)c(F)cc2c1=O` [CIPROFLOXACIN], the MIC with Bacillus subtilis (setting [1]) is below 0.4 µM; in the experiment on Mycolicibacterium phlei (setting [2]), below 0.4 µM; with Proteus sp. (setting [3]) it was 0.8 µM (≈ 0.265 µg/mL); in the experiment with Vibrio parahaemolyticus, below 0.4 µM; in the experiment with Staphylococcus aureus it was above 50 µM; with Bacillus cereus (Bacillus cereus, read-out: MIC), below 0.4 µM.

`O=c1c(-c2ccc(O)c(-c3c(O)ccc4c(=O)c(-c5ccc(O)cc5)coc34)c2)coc2cc(O)ccc12`: the MIC was 6.2 µM (≈ 3.14 µg/mL) in the experiment with Bacillus subtilis (setting [1]); 6.2 µM (≈ 3.14 µg/mL) in the experiment with Mycolicibacterium phlei (setting [2]); 50 µM (≈ 25.3 µg/mL) in the experiment on Proteus sp. (setting [3]); above 50 µM in the experiment with Candida albicans; 12 µM (≈ 6.08 µg/mL) with Vibrio parahaemolyticus; above 50 µM in the experiment with Staphylococcus aureus. For the same molecule, in the experiment with Bacillus cereus (Bacillus cereus, read-out: MIC), the MIC came to 3.1 µM (≈ 1.57 µg/mL).

`COc1c(O)ccc2c(=O)c(-c3ccc(O)c(-c4cc(-c5coc6cc(O)ccc6c5=O)ccc4O)c3)coc12`: the MIC in the experiment on Bacillus subtilis (setting [1]) was 25 µM (≈ 13.4 µg/mL); with Mycolicibacterium phlei (setting [2]), 25 µM (≈ 13.4 µg/mL); in the experiment on Proteus sp. (setting [3]), above 50 µM; in the experiment with Candida albicans it was above 50 µM; in the experiment on Vibrio parahaemolyticus it was above 50 µM; in the experiment with Staphylococcus aureus, above 50 µM. Also, the MIC in the experiment on Bacillus cereus (Bacillus cereus, read-out: MIC) turned out to be 25 µM (≈ 13.4 µg/mL).

Turning to `O=c1c(-c2ccc(O)c(-c3c(O)cc(O)c4c(=O)c(-c5ccc(O)cc5)coc34)c2)coc2cc(O)ccc12`, the MIC is 12 µM (≈ 6.27 µg/mL) in the experiment on Bacillus subtilis; 6.2 µM (≈ 3.24 µg/mL) in the experiment with Bacillus subtilis (setting [1]); 12 µM (≈ 6.27 µg/mL) with Proteus sp. (setting [3]); above 50 µM in the experiment on Candida albicans; above 50 µM in the experiment with Staphylococcus aureus.

Regarding `O=c1c(-c2ccc(O)cc2)coc2c(-c3cc(-c4coc5cc(O)cc(O)c5c4=O)ccc3O)c(O)ccc12`, the MIC with Bacillus subtilis is 25 µM and 12 µM; in the experiment with Mycolicibacterium phlei it was 12 µM and 25 µM; in the experiment on Proteus sp., 25 µM (≈ 13.1 µg/mL); with Proteus sp. (setting [3]), 50 µM (≈ 26.1 µg/mL); in the experiment on Candida albicans, above 50 µM; in the experiment on Vibrio parahaemolyticus, 50 µM (≈ 26.1 µg/mL). Further, the MIC in the experiment on Bacillus cereus was found to be 12 µM (≈ 6.27 µg/mL); with Bacillus cereus (Bacillus cereus, read-out: MIC), 6.2 µM (≈ 3.24 µg/mL).

Consider `O=c1c(-c2ccc(O)c(-c3cc(-c4coc5c(Cl)c(O)cc(O)c5c4=O)ccc3O)c2)coc2cc(O)cc(O)c12`, for which the minimum inhibitory concentration (MIC) is above 50 µM in the experiment on Bacillus subtilis (setting [1]); above 50 µM in the experiment on Mycolicibacterium phlei (setting [2]); above 50 µM in the experiment with Proteus sp. (setting [3]); 1.6 µM (≈ 0.917 µg/mL) with Candida albicans; 1.6 µM (≈ 0.917 µg/mL) with Vibrio parahaemolyticus; above 50 µM with Staphylococcus aureus. In addition, the MIC in the experiment with Bacillus cereus (Bacillus cereus, read-out: MIC) was above 50 µM.

On to `O=c1c(-c2ccc(O)cc2)coc2cc(O)ccc12` [DAIDZEIN], for which the MIC in the experiment on Bacillus subtilis (setting [1]), with Mycolicibacterium phlei (setting [2]), in the experiment with Proteus sp. (setting [3]), in the experiment on Candida albicans, with Vibrio parahaemolyticus and in the experiment on Staphylococcus aureus was above 50 µM in each case. Also, the MIC in the experiment with Bacillus cereus (Bacillus cereus, read-out: MIC) was above 50 µM.

Regarding `O=c1c(-c2ccc(Oc3c(O)cc(O)c4c(=O)c(-c5ccc(O)cc5)coc34)cc2)coc2c(Cl)c(O)cc(O)c12`, the MIC is 0.8 µM (≈ 0.458 µg/mL) in the experiment with Bacillus subtilis (setting [1]); above 50 µM in the experiment with Mycolicibacterium phlei (setting [2]); above 50 µM in the experiment on Proteus sp. (setting [3]); 1.6 µM (≈ 0.917 µg/mL) in the experiment on Candida albicans; 3.1 µM (≈ 1.78 µg/mL) in the experiment on Vibrio parahaemolyticus; above 50 µM in the experiment with Staphylococcus aureus. Further, in the experiment with Bacillus cereus (Bacillus cereus, read-out: MIC), the minimal inhibitory concentration (MIC) is above 50 µM.

Take `O=c1c(-c2ccc(O)cc2)coc2cc(O)cc(O)c12` [GENISTEIN]: the MIC in the experiment with Bacillus subtilis (setting [1]), in the experiment on Mycolicibacterium phlei (setting [2]), in the experiment on Proteus sp. (setting [3]), in the experiment on Candida albicans, in the experiment on Vibrio parahaemolyticus and with Staphylococcus aureus was above 50 µM in each case. Also, the MIC in the experiment on Bacillus cereus (Bacillus cereus, read-out: MIC) was above 50 µM.

As for `O=c1c(-c2ccc(O)c(Oc3ccc(-c4coc5c(Cl)c(O)cc(O)c5c4=O)cc3)c2)coc2cc(O)ccc12`, the minimum inhibitory concentration (MIC) was 1.6 µM (≈ 0.891 µg/mL) in the experiment with Bacillus subtilis (setting [1]); above 50 µM with Mycolicibacterium phlei (setting [2]); above 50 µM in the experiment on Proteus sp. (setting [3]); 1.6 µM (≈ 0.891 µg/mL) in the experiment on Candida albicans; 3.1 µM (≈ 1.73 µg/mL) in the experiment on Vibrio parahaemolyticus; above 50 µM with Staphylococcus aureus. The minimum inhibitory concentration (MIC) with Bacillus cereus (Bacillus cereus, read-out: MIC) was above 50 µM.

With `O=c1c(-c2ccc(Oc3c(O)cc(O)c4c(=O)c(-c5ccc(O)cc5)coc34)cc2)coc2c(Cl)c(O)ccc12`, the minimum inhibitory concentration (MIC) with Bacillus subtilis (setting [1]) was 0.4 µM (≈ 0.223 µg/mL); in the experiment with Mycolicibacterium phlei (setting [2]) it was above 50 µM; with Proteus sp. (setting [3]) it was above 50 µM; with Candida albicans, above 50 µM; in the experiment on Vibrio parahaemolyticus, above 50 µM; with Staphylococcus aureus it was above 50 µM. The MIC in the experiment on Bacillus cereus (Bacillus cereus, read-out: MIC) is above 50 µM.

`COc1cc(-c2coc3cc(O)c(-c4cc(-c5coc6cc(O)ccc6c5=O)ccc4O)cc3c2=O)ccc1O`: the minimum inhibitory concentration (MIC) in the experiment with Bacillus subtilis (setting [1]) was 12 µM (≈ 6.44 µg/mL); in the experiment with Mycolicibacterium phlei (setting [2]) it was 12 µM (≈ 6.44 µg/mL); with Proteus sp. (setting [3]) it was 12 µM (≈ 6.44 µg/mL); in the experiment with Candida albicans it was above 50 µM; with Vibrio parahaemolyticus it was 50 µM (≈ 26.8 µg/mL); with Staphylococcus aureus, above 50 µM. In the experiment with Bacillus cereus (Bacillus cereus, read-out: MIC), the MIC was 12 µM (≈ 6.44 µg/mL).

For NYSTATIN, the MIC in the experiment on Candida albicans amounted to 25 µM.

On to `O=c1c(-c2ccc(O)c(Oc3ccc(-c4coc5c(Cl)c(O)ccc5c4=O)cc3)c2)coc2cc(O)ccc12`, for which the minimum inhibitory concentration (MIC) was 0.8 µM (≈ 0.433 µg/mL) in the experiment on Bacillus subtilis (setting [1]); above 50 µM with Mycolicibacterium phlei (setting [2]); above 50 µM in the experiment with Proteus sp. (setting [3]); 1.6 µM (≈ 0.865 µg/mL) in the experiment with Candida albicans; 0.8 µM (≈ 0.433 µg/mL) in the experiment on Vibrio parahaemolyticus; above 50 µM in the experiment on Staphylococcus aureus. Besides, the MIC with Bacillus cereus (Bacillus cereus, read-out: MIC) is above 50 µM.

As usually defined, the MIC is the smallest concentration in the dilution series that meets the test's criterion for growth inhibition.
